Assays:
[1] = test system: patients with Parkinson's syndrome; experiment: Clinical trial: unified scale for evaluation of Parkinsonism; assay type: in vivo, human; conditions: 3 months of treatment
Protocol: The efficacy of the treatment of Alzheimer-type dementias with marked intellectual-mnestic memory loss with polyprenols of formula (1) and a comparison of the efficacy of Ropren and Gliatilin was studied in patients during a 3-month course of treatment. Treatment efficacy on various functions before and after the treatment was assessed using the international scale MMSE ((evaluation of mental status—Mini-Mental State Examination, MMSE) Folstcin et al, 1975), “list with symptoms” questionnaire, unified scale for evaluation of Parkinsonism, EEG data, and biochemical parameters of the blood.
After treatment with Ropren, the Parkinson's syndrome decreased (on average by 5 points) in almost all patients, i.e., in 23 out of 25 patients or in 92%. This positive effect was found as early as 1 month after commencement of Ropren therapy. In the case of Gliatilin, improvement of Parkinson's syndrome was less pronounced (on average by 3 points) using the Parkinsonism rating scale.

[2] = test system: patients with vascular dementia of the Alzheimer's type; experiment: Clinical trial: electroencephalography (EEG) before and after therapy; assay type: in vivo, human; conditions: before vs after treatment (about 3 months), individual patients or group
Protocol: MMSE scale (parameter of evaluation of intellectually-mnestic functions of a patient before and after treatment) was used for the evaluation of intellect. […] Electroencephalography (EEG) was performed in 12 patients (48%) before and after the Ropren therapy.

## C[N+](C)(C)CCOP(=O)([O-])OC[C@H](O)CO [Gliatilin, choline alfoscerate]
[1]
  average decrease of Parkinson's syndrome on Parkinsonism rating scale: 3 points
[2]
  Changes in EEG: No changes

— patent US8987338B2, “Active ingredient of a medicinal agent, a medicinal agent, a pharmaceutical composition and method for treating dementia syndrome patients” (priority 2007, dated 2015)
